# Assay results published in patent publication US10604476B2, “Fluorinated amide derivatives and their uses as therapeutic agents” (Trillium Therapeutics Inc., priority 2015, dated 2020).
# Legend:
# Type in all cases: in vivo
# [1] = test system: maximal electroshock seizure; assay: Maximal Electroshock Seizure (MES) rat model; details: po, 0.5 hour
# Method: Male, Sprague-Dawley rats and CD-1 mice were used for all studies. All animals were allowed ad-lib access to food and water except during experiment. Animals were housed within an animal vivarium maintained under a 12 h light:dark cycle (lights on: 07:00 h), and all experiments were conducted in the animals light phase. For all experiments, animals were habituated to the vivarium for a minimum of 72 h before experimentation. The experimental procedures used in the present investigation were conducted under the Association for Assessment and Accreditation of Laboratory Animal Care (AAALAC) and the Canadian Council on Animal Care (CCAC) guidelines. All compounds were sonicated in 5% Tween 80® in saline or methylcellulose 0.5% (wgt/vol), using MC and sterile water and injected in a dose volume of 5 ml/kg or 10 ml/kg (rat), and 10 ml/kg (mouse). Drugs were administered by either the oral, intraperitoneal or intravenous route. Male Sprague-Dawley rats of body weight 80-100 g were used for these studies. Each experiment was conducted over 3 consecutive days. On day 1 and 2, each rat received a single electrical stimulus (150 mA, 0.2 s duration, 60 Hz) via corneal electrodes moistened with saline (Shock stimulator type 221: Harvard apparatus). […] Typically this reflected approximately 70-90% of the initial group. […] On the test day following a defined drug pretreatment period, rats received a maximal electroshock (150 mA, 0.2 s duration, 60 Hz) via corneal electrodes. Protection was defined as absence of a full tonic seizure within 10 s of stimulus delivery. Twenty minutes before the MES procedure, the animals were tested on a fixed speed rotorod (best score from 3 trials at 8 r.p.m, trial duration=60 s) to give an early assessment of drug effect on gross motor function.
# [2] = test system: corneal kindled seizures; assay: Corneal kindling mouse model
# Text: Mice are kindled electrically with 3 sec stimulation, 8 mA, 60 Hz, and corneal electrodes to a criterion of 10 consecutive Stage 5 seizures (facial clonus and head nodding progressing to forelimb clonus, and finally rearing and falling accompanied by a generalized clonic seizure as described by Racine). Stage 5 is generally reached after twice daily stimulation for 8 days. With continued stimulation once a day, animals usually progress to a reproducible Stage 5 after 10-14 additional days. At least 72 hours after the mice have been kindled, the test substance is administered either i.p. or p.o. and, at the previously determined TPE, each animal is given the electrical stimulus indicated above. Following stimulation, the animals are observed for the presence or absence of the rearing and falling criteria of a Stage 5 seizure. Treated animals not displaying a Stage 3, 4, or 5 seizure are considered protected. The dose of the test substance is varied between the limits of 0 and 100% efficacy, and the ED50 and 95% confidence intervals calculated by probit analysis. Mean values and the S.E.M. are calculated for the length of clonus and seizure duration and p values are determined by the Student's t-test.
# [3] = test system: spontaneous recurrent hippocampal paroxysmal discharges (HPD); assay: Mesial temporal lobe epilepsy (mTLE) mouse model; details: 125 mg/kg; mice lesioned with intrahippocampal kainic acid
# Text: The MTLE mouse model recapitulates many of the characteristics observed in human patients with temporal lobe epilepsy (TLE). The MTLE mouse is characterized by an initial neurotoxic event, a unilateral intrahippocampal injection of kainic acid (KA) into the dorsal hippocampus, which induces non-convulsive SE lasting several hours. This initial event is followed by a latent phase. Two to three weeks after KA injection, spontaneous recurrent hippocampal paroxysmal discharges (HPD) are only recorded in the epileptic hippocampus and remain stable and stereotyped for the whole life of the animal. These HPDs occur spontaneously about 30-60 times per hour when the animals are in a state of quiet wakefulness, generally last 15-20 sec and are associated with behavioral arrest and/or mild motor automatisms. […] Data are analyzed for the period of 10 minutes before and 10 minutes after peak time of effect of the investigational compound, as determined from the 6 Hz 44 mA seizure test. […] Data are presented as the raw number of HPDs during the analyzed 20 min period (10 minutes before and 10 minutes after peak time of effect of compound) for each MTLE mouse, group mean number of HPDs, and effect on suppression as represented by percent of baseline HPD values.
SMILES,ED50 [1] [mg/kg],Average Seizure ([2]; 35 mg/kg),"N/F, number of animals active over the number tested ([2]; 35 mg/kg)",Average Seizure ([2]; 70 mg/kg),"N/F, number of animals active over the number tested ([2]; 70 mg/kg)",Average Seizure ([2]; 140 mg/kg),"N/F, number of animals active over the number tested ([2]; 140 mg/kg)",Average Seizure ([2]; 300 mg/kg),"N/F, number of animals active over the number tested ([2]; 300 mg/kg)","ED50 ([2]; Mus musculus, corneal kindled mice, read-out: ED50, reduction of seizure score (seizure severity)) [mg/kg]",effect against spontaneous recurrent hippocampal paroxysmal discharges (HPD) [3]
"NC(=O)COc1cc(C(F)(F)F)cc(C(F)(F)F)c1 [I(F), 2-[3,5 bis(trifluoromethyl)-phenoxy]acetamide;]",18.4,–,–,–,–,–,–,–,–,–,–
"C[C@@H](Oc1cc(Cl)cc(C(F)(F)F)c1)C(N)=O [I(D), (2R)-2-[3-chloro-5-(trifluoromethyl)-phenoxy]propanamide]",22.7,5,0/8,4.6,1/8,2.4,5/8,0.8,8/8,70.4 ± 1,effective
